A value given as a limit tells only on which side of the number the result lay.

The target of one series is T1, HIV protease (Human immunodeficiency virus type 1 group M subtype B, UniProt P04585).
T1 construct: plasmid containing HIV protease under the control of an inducible T7 promoter; made in house; host or cells: E. coli (inclusion bodies, T7 promoter)
Nature of the series: biochemical. More on the design: species or system HIV-1. Particulars: Table 2A; read-out: Ki. The protocol:
HIV Protease Inhibition Assay—Spectroscopic Method
Inclusion bodies were solubilized in 8M urea, 50 mM tris pH 8.0. Protease activity was recovered by dilution 20-fold into buffer containing 50 mM sodium acetate pH 5.5, 1 mM EDTA, 10% glycerol and 5% ethylene glycol. Enzyme was used at a final concentration of 1.0-10 ug/ml.
Stock solutions of 10 mM were prepared in DMSO.
All further dilutions were done in DMSO.
With `CN1C(=O)N(Cc2ccccc2)C(Cc2ccccc2)C(O)C(O)C1Cc1ccccc1` (stereo not drawn) [Example 2H], the Ki (usually the equilibrium dissociation constant of an inhibitor or competing ligand from its target) was 10 to 1000 nM.
Take `O=C1N(Cc2cccc(OC(F)(F)F)c2)C(Cc2ccccc2)C(O)C(O)C(Cc2ccccc2)N1Cc1cccc(OC(F)(F)F)c1` (stereo not drawn) [Example 2J]: the Ki lay within 10 to 1000 nM.
On the same count and under the same terms, the value for `O=C1N(Cc2ccc(F)c(C(F)(F)F)c2)C(Cc2ccccc2)C(O)C(O)C(Cc2ccccc2)N1Cc1ccc(F)c(C(F)(F)F)c1` (stereo not drawn) [Example 2K] was 10 to 1000 nM; that for `O=C1N(Cc2ccc(OC(F)(F)F)cc2)C(Cc2ccccc2)C(O)C(O)C(Cc2ccccc2)N1Cc1ccc(OC(F)(F)F)cc1` (stereo not drawn) [Example 2L] was 10 to 1000 nM.

The same series, now with this note: second table headed Table 2A; read-out: Ki.
`CN1C(=O)N(Cc2ccccc2)C(Cc2ccccc2)C(O)C(O)C1Cc1ccccc1` (stereo not drawn) [Example 2H]: the Ki lay within 10 to 1000 nM.
Regarding `O=C1N(Cc2cccc(OC(F)(F)F)c2)C(Cc2ccccc2)C(O)C(O)C(Cc2ccccc2)N1Cc1cccc(OC(F)(F)F)c1` (stereo not drawn) [Example 2J], the Ki was in the range of 10 to 1000 nM.
Turning to `O=C1N(Cc2ccc(F)c(C(F)(F)F)c2)C(Cc2ccccc2)C(O)C(O)C(Cc2ccccc2)N1Cc1ccc(F)c(C(F)(F)F)c1` (stereo not drawn) [Example 2K], the Ki lay within 10 to 1000 nM.
Consider `O=C1N(Cc2ccc(OC(F)(F)F)cc2)C(Cc2ccccc2)C(O)C(O)C(Cc2ccccc2)N1Cc1ccc(OC(F)(F)F)cc1` (stereo not drawn) [Example 2L], for which the Ki fell in the range of 10 to 1000 nM.

Another series addresses single-chain tethered dimer of HIV protease (Human immunodeficiency virus 1, UniProt P04585). Nature of the series: biochemical.
Conditions: not given
In kind it is biochemical. How it is done:
HIV Protease Inhibition Assay—HPLC Method
Active protease was prepared as described therein by extraction with 67% acetic acid, dilution 33-fold with water, dialysis against water and then against a “refolding buffer” consisting of 20 mM MES, 1 mM dithiothreitol and 10% glycerol. Protease was stored as a stock preparation at 10 uM in refolding buffer.
Substrate: Peptide of sequence: aminobenzoyl-Ala-Thr-His-Gln-Val-Tyr-Phe(NO2)-Val-Arg-Lys-Ala containing p-nitrophenylalanine, was prepared by solid phase synthesis as previously described Cheng et al., op.cit. Stock solutions of 2 mM substrate were prepared in DMSO.
Inhibitory compounds were dissolved in sufficient DMSO to make 3 mM stock solutions. All further dilutions were prepared in “assay buffer”: 1M NaCl, 50 mM MES, pH 5.5, 1 mM EDTA, 1 mM DTT, […] glycerol.
Enzyme reaction: In a 2 ml screw-cap centrifuge tube were added 50 ul protease (final concentration 0.25 nM) and 0.1 ml inhibitory compound (final concentration […]). After 15 min preincubation at room temperature, the reaction was started with the addition of 0.05 ml substrate (final concentration 5 uM). Incubation was carried out at 30 C. for 1 hr. The reaction was stopped with 1 ml 0.1M ammonium hydroxide.
HPLC measurement of product formation: The product (aminobenzoyl-Ala-Thr-His-Gln-Val-Tyr) was separated from substrate on a Pharmacia MonoQ anion exchange column. The injection volume was 0.2 ml. The mobile phases were: A (20 mM trisHCl, pH 9.0, 0.02% sodium Azide, 10% acetonitrile), B (20 mM tris HCl, pH 9.0, 0.02% sodium azide, 0.5M ammonium formate, 10% acetonitrile). The mobile phases were pumped at 1 ml/min, with a gradient from 0 to 30% B in 5 min, 100% B for 4 min to wash the column, and a re-equilibration for 4 min. The retention time of the product was 3.6 min. Detection with a Shimadzu model RF535 fluorescence monitor was at 330 nm (excitation) and 430 (emission).
`O=C1N(Cc2ccc3ccccc3c2)C(Cc2ccccc2)C(O)C(O)C(Cc2ccccc2)N1Cc1ccc2ccccc2c1` (stereo not drawn) [Example 3U]: the Ki was under 10 nM.
`CCCCN1C(=O)N(CC2CC2)C(Cc2ccccc2)C(O)C(O)C1Cc1ccccc1` (stereo not drawn) [Example 3X] registered a Ki of under 10 nM.
`C=COCCN1C(=O)N(CCOC=C)C(Cc2ccccc2)C(O)C(O)C1Cc1ccccc1` (stereo not drawn) [Example 4D] yielded a Ki of 10 to 1000 nM.
Same read-out and setting: the value for `O=C1[C@@H](Cc2ccccc2)C[C@@H](O)[C@@H](Cc2ccccc2)N1Cc1ccccc1` [Example 25A] was over 1000 nM.

The same series, now with this note: HIV protease inhibition; class symbols; read-out: Ki.
As to `O=C1N(CC2CCCCC2)C(Cc2ccccc2)C(O)C(O)C(Cc2ccccc2)N1CC1CCCCC1` (stereo not drawn) [Example 3O], the Ki is 10 to 1000 nM.
Consider `C=CCN1C(=O)N(CC2CC2)C(Cc2ccccc2)C(O)C(O)C1Cc1ccccc1` (stereo not drawn) [Example 3W], for which the Ki is under 10 nM.

The next series deals with HIV-1 (RF) in MT-2 cells. The series is described as follows: microbe, parasite or virus in culture. In kind it is cell-based. Particulars: HIV RNA assay, HIV-1 infected MT-2 cells; class symbols. In outline: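 Read-out: gag and pol viral RNA captured by 5′-biotinylated oligonucleotides on streptavidin-coated wells, detected with alkaline phosphatase-linked reporter oligonucleotides, calibrated against BH10 in vitro transcripts. Virus stocks (RF, MN, IIIB) come from H9 cultures; MT-2 host cells kept in RPMI 1640, 5% FCS.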
As for `O=C1N(CC2CCCCC2)C(Cc2ccccc2)C(O)C(O)C(Cc2ccccc2)N1CC1CCCCC1` (stereo not drawn) [Example 3O], the IC90 (commonly the concentration needed for an effect of 90%) is “+ (+=>100 μg/mL)”.
For `C=CCN1C(=O)N(CC2CC2)C(Cc2ccccc2)C(O)C(O)C1Cc1ccccc1` (stereo not drawn) [Example 3W], the IC90 result is reported as “+++ (+++=<10 μg/mL)”.

The series is the same for the next values; noted with them: Human immunodeficiency virus 1, MT2, HIV RNA assay, HIV-1 infected MT-2 cells; class symbols; read-out: IC90.
As to `O=C1N(Cc2ccc3ccccc3c2)C(Cc2ccccc2)C(O)C(O)C(Cc2ccccc2)N1Cc1ccc2ccccc2c1` (stereo not drawn) [Example 3U], the IC90 is under 10 µg/mL.
Regarding `CCCCN1C(=O)N(CC2CC2)C(Cc2ccccc2)C(O)C(O)C1Cc1ccccc1` (stereo not drawn) [Example 3X], the IC90 is under 10 µg/mL.

The series is the same for the next values; noted with them: Human immunodeficiency virus 1, MT2, Table 2A; read-out: IC90.
In the case of `CN1C(=O)N(Cc2ccccc2)C(Cc2ccccc2)C(O)C(O)C1Cc1ccccc1` (stereo not drawn) [Example 2H], the IC90 is under 10 µg/mL.
Turning to `O=C1N(Cc2cccc(OC(F)(F)F)c2)C(Cc2ccccc2)C(O)C(O)C(Cc2ccccc2)N1Cc1cccc(OC(F)(F)F)c1` (stereo not drawn) [Example 2J], the IC90 is under 10 µg/mL.
Regarding `O=C1N(Cc2ccc(F)c(C(F)(F)F)c2)C(Cc2ccccc2)C(O)C(O)C(Cc2ccccc2)N1Cc1ccc(F)c(C(F)(F)F)c1` (stereo not drawn) [Example 2K], the IC90 was under 10 µg/mL.
Consider `O=C1N(Cc2ccc(OC(F)(F)F)cc2)C(Cc2ccccc2)C(O)C(O)C(Cc2ccccc2)N1Cc1ccc(OC(F)(F)F)cc1` (stereo not drawn) [Example 2L], for which the IC90 is under 10 µg/mL.

The series is the same for the next values; noted with them: Human immunodeficiency virus 1, MT2, second table headed Table 2A; read-out: IC90.
`CN1C(=O)N(Cc2ccccc2)C(Cc2ccccc2)C(O)C(O)C1Cc1ccccc1` (stereo not drawn) [Example 2H]: the IC90 was under 10 µg/mL.
As for `O=C1N(Cc2cccc(OC(F)(F)F)c2)C(Cc2ccccc2)C(O)C(O)C(Cc2ccccc2)N1Cc1cccc(OC(F)(F)F)c1` (stereo not drawn) [Example 2J], the IC90 was under 10 µg/mL.
On the same count and under the same terms, the value for `O=C1N(Cc2ccc(F)c(C(F)(F)F)c2)C(Cc2ccccc2)C(O)C(O)C(Cc2ccccc2)N1Cc1ccc(F)c(C(F)(F)F)c1` (stereo not drawn) [Example 2K] was under 10 µg/mL; that for `O=C1N(Cc2ccc(OC(F)(F)F)cc2)C(Cc2ccccc2)C(O)C(O)C(Cc2ccccc2)N1Cc1ccc(OC(F)(F)F)cc1` (stereo not drawn) [Example 2L] was under 10 µg/mL.

System in another series: not given
Test: not given
Conditions: not given
Take `CN1C(=O)N(Cc2ccccc2)C(Cc2ccccc2)C(O)C(O)C1Cc1ccccc1` (stereo not drawn) [Example 2H]: the melting point – broadly, the temperature of the solid-liquid transition – was found to be 81 °C.
`O=C1N(Cc2cccc(OC(F)(F)F)c2)C(Cc2ccccc2)C(O)C(O)C(Cc2ccccc2)N1Cc1cccc(OC(F)(F)F)c1` (stereo not drawn) [Example 2J] registered a melting point of 128.3 °C.
`O=C1N(Cc2ccc(F)c(C(F)(F)F)c2)C(Cc2ccccc2)C(O)C(O)C(Cc2ccccc2)N1Cc1ccc(F)c(C(F)(F)F)c1` (stereo not drawn) [Example 2K] came in with a melting point of 167.2 °C.
Compound `O=C1N(Cc2ccc(OC(F)(F)F)cc2)C(Cc2ccccc2)C(O)C(O)C(Cc2ccccc2)N1Cc1ccc(OC(F)(F)F)cc1` (stereo not drawn) [Example 2L] came in with a melting point of 136.8 °C.

These data come from patent USRE37781E1, “Substituted cyclic carbonyls and derivatives thereof useful as retroviral protease inhibitors” (DuPont Pharmaceuticals Company, priority 1991, dated 2002).
